Measured values as given in PMC3863390 (Molecular nutrition & food research, 2012).
Where “and” joins values, the source holds several entries; their conditions need not be identical. Identical values can stand only once.

Tests used:
RT4 cells [1] = assay: SRB cell viability assay in RT4 cells; assay type: cell-based, human; conditions: for RT4 cell viability inhibition: 20 μM, 48 hr
[2] = system: human bladder cancer cell lines (HBCCs); assay type: cell-based; conditions: p>0.8, data not shown
J82 cells [3] = assay: SRB cell viability assay in J82 cells; assay type: cell-based; conditions: Homo sapiens, J82, 48 h, read-out: IC50, cell viability
UMUC3 cells = assay: cells; assay type: cell-based; conditions: Homo sapiens, UMUC3, 48 h, read-out: IC50, cell viability
[4] = system: Normal human bladder urothelial cells (NHU); assay: tissue or blood; assay type: cell-based
RT4 cells [5] = assay: Cell cycle analysis by flow cytometry, RT4; assay type: cell-based, human; conditions: 20 μM, 48 hr
J82 cells [6] = assay: Cell cycle analysis by flow cytometry, J82; assay type: cell-based, human; conditions: 20 μM, 48 hr
caspase 3/7 = assay: Apo-ONE caspase-3/7 assay, RT4; assay type: cell-based, human; conditions: 10 μM, 48 hr
PARP [7] = assay: Western blot of PARP cleavage, RT4; assay type: cell-based, human; conditions: 20 μM, 48 hr
PARP [8] = assay: Western blot of PARP cleavage, UMUC3; assay type: cell-based, human; conditions: 20 μM, 48 hr
survivin [9] = assay: Western blot of survivin expression, UMUC3; assay type: cell-based, human; conditions: 20 μM, 48 hr
EGFR [10] = assay: Western blot of EGFR expression, RT4; assay type: cell-based, human; conditions: 20 μM, 48 hr
EGFR [11] = assay: Western blot of EGFR expression, UMUC3; assay type: cell-based, human; conditions: 20 μM, 48 hr
HER2/neu [12] = assay: Western blot of HER2/neu expression, RT4; assay type: cell-based, human; conditions: 20 μM, 48 hr
HER2/neu [13] = assay: Western blot of HER2/neu expression, UMUC3; assay type: cell-based, human; conditions: 20 μM, 48 hr
UMUC3 xenograft = UMUC3 xenograft in athymic nude mice; assay type: in vivo, mouse; conditions: 295 μmol/kg/day oral gavage, 2 weeks
survivin [14] = conditions: RT4; 20 μM, 48 hr

Structure (SMILES): C[S+]([O-])CCCN=C=S (centres unmarked) [iberin]
- RT4 cell viability inhibition (RT4 cells [1]): 12%

Structure (SMILES): C[S+]([O-])CCCCN=C=S (centres unmarked) [R-sulforaphane]
- difference between isomers in inhibitory effects of HBCCs [2]: no difference

Structure (SMILES): C[S+]([O-])CCCCN=C=S (centres unmarked) [sulforaphane]
- RT4 cell viability inhibition (RT4 cells [1]): 64%
- IC50 (RT4 cells [1]; Homo sapiens, RT-4, 48 h, read-out: IC50, cell viability): 11.2 ± 0.3 µM
- IC50 (J82 cells [3]): 7.7 ± 1.8 µM
- IC50 (UMUC3 cells): 5.66 ± 1.2 µM
- inhibition at 20 µM ([4]; Homo sapiens, 72 h, read-out: inhibition of NHU): 62%
- IC50, cell viability ([4]; NHU cells, 72 hr): not reached
- increase of cells in the G2/M phase compared to control (RT4 cells [5]): 2.6 fold
- increase of cells in the G2/M phase (J82 cells [6]): 3 fold
- increase in caspase 3/7 activity compared to control (caspase 3/7): 2.5 fold
- PARP cleavage increase (PARP [7]): 2.3 fold
- PARP cleavage increase (PARP [8]): 3.6 fold
- survivin expression downregulated (survivin [9]): 35%
- changes in EGFR expression (EGFR [10]): does not lead to significant changes
- EGFR protein expression downregulated (EGFR [11]): 54%
- decrease of HER2/neu expression (HER2/neu [12]): 10%
- HER2/neu downregulated (HER2/neu [13]): 90%
- inhibition of tumor growth rate (UMUC3 xenograft): 42%
- decrease in final tumor weight (UMUC3 xenograft; versus vehicle control soy bean oil): 33%
- decrease in survivin expression (survivin [14]): 51% and 44%

Structure (SMILES): C=CCN=C=S [allyl isothiocyanate]
- RT4 cell viability inhibition (RT4 cells [1]): 28%

Structure (SMILES): C[S@+]([O-])CCCCN=C=S [S-sulforaphane]
- difference between isomers in inhibitory effects of HBCCs [2]: no difference
